From patent US20030219451A1, “Stable helical C peptides and uses therefor” (priority 2001, published 2003)
Several values for one entry are separate records, joined by “and”; a condition that tells them apart may be missing. Equal entries are not always repeated. Where two headings read alike, the source gives them in different places.

How the values were obtained:
[1] = test system: HIV-1 envelope mediated fusion of CHO gp160 cells with CD4 HeLa cells; details: C34 data taken from Chan et al., PNAS 95:15613 (1998); read-out: Cell-Cell Fusion Assay (IC50 in nM); cited from earlier work
[2] = Circular dichroism spectroscopy; type: physicochemical; details: PBS, pH 7.0, 25° C., C34-GCN4 with about 0.7 M guanidine hydrochloride
Description: The guanidine hydrochloride used to solubilize C34-GCN4 absorbs light at wavelengths below 210 nm. Experimental conditions were PBS, pH 7.0, 25° C.
CD spectra were measured on an Aviv 60DS spectrapolarimeter at 25° C. in phosphate buffered saline (PBS; 10 mM sodium phosphate, 150 mM NaCl, pH 7.0). […] Guanidine concentrations were measured by refractometry.

[3] = test system: recombinant luciferase-expressing HIV-1 infecting HOS-CD4/Fusin cells; details: C34 data taken from Chan et al., PNAS 95:15613 (1998); read-out: Viral Infectivity Assay (IC50 in nM); cited from earlier work
[4] = molecular target: HIV-1 gp41 envelope glycoprotein (HXB2 envelope) (HIV-1 (HXB2)) (UniProt P04578); assay: cell-based or functional assay
[5] = test system: recombinant luciferase-expressing HIV-1 infecting HOS-CD4/Fusin cells
Description: The peptides were tested for inhibition of CD4 positive target cells (HOST4) by recombinant, luciferase-expressing HIV-1 (D. C. Chan, C. T. Chutkowski, P. S. Kim, Proc. Natl. Acad. Sci. 95, 15613-15617 (1998)).
(§1) Assessment of viral infectivity and syncytia formation were carried out as described by Eckert et al., Cell, 99:103-115 (1999). In both inhibition assays, peptide stocks were dissolved in dimethylsulfoxide and their concentrations determined by absorbance in guanidine at 280 nm. The final concentration of dimethylsulfoxide in tissue culture media was 1% in all experiments. Inhibition of cell-cell fusion (syncytia formation) (G. J. Nabel, Nature 410, 1002-1007 (2001); D. C. Chan, C. T. Chutkowski, P. S. Kim, Proc. Natl. Acad. Sci. 95, 15613-15617 (1998)) was assayed by co-culturing 3×10^4 Chinese hamster ovary (CHO) cells expressing HXB2 envelope and tat and rev with 5×10^4 HeLa cells expressing CD4 and LTR-driven β-galactosidase in the presence of varying concentrations of peptides. The CHO and HeLa cells were incubated in the presence of peptides for 20 hours, and stained with 5-bromo-4-chloro-3-indolyl-β-D-galactoside (X-gal) to detect the syncytia, which were visualized by microscopy and counted manually. In the viral infectivity assay, the ability of the peptides to inhibit HIV-1 infection was assayed using a recombinant luciferase-encoding HIV-1 (G. J. Nabel, Nature 410, 1002-1007 (2001); D. C. Chan, C. T. Chutkowski, P. S. Kim, Proc. Natl. Acad. Sci. 95, 15613-15617 (1998)). 293T cells were co-transfected with an envelope-deficient HIV-1 genome with a luciferase gene (NL43LucR-E-) [B. K. Chen, K. Saksela, R. Andino, D. Baltimore, J. Virol. 68, 654-660 (1994)] and the HXB2 gp160 expression vector (pCMVHXB2 gpl60). Low-speed centrifugation was used to clear the viral supernatants of cellular debris. The supernatant containing the viruses was used to infect HOS cells expressing CD4 and CXCR4 (HOS-CD4/Fusin cells, N. Landau, National Institutes of Health AIDS Reagent Program) in the presence of varying concentrations of peptides. The HOS cells were harvested 48 hours post-infection, and luciferase activity was monitored using a Wallac AutoLumat LB953 luminometer. In both assays, the IC50, the concentration needed to inhibit 50% of cell-cell fusion events or luciferase activity, was calculated from fitting the data to the equation, y=k/(1+[peptide]/IC50), where y=number of syncytia or luciferase activity and k is a scaling constant.
In a second assay, the ability of the peptides to inhibit HIV infection of HOS cells expressing CD4 and CXCR4 was measured, using a luciferase-based reporter assay (D. C. Chan, C. T. Chutkowski, P. S. Kim, Proc. Natl. Acad. Sci. 95: 15613-15617 (1998); Chen, B. K., et al.,J. Virol., 68(2):[…] (1994)).

[6] = 10 μM; Gonzalez et al. 1996; cited from earlier work
[7] = test system: HIV-1 envelope mediated fusion of CHO gp160 cells with CD4 HeLa cells
Description: The peptides were tested for inhibiting the fusion of HIV-1 Env expressing cells (CHO gp 160) with CD4expressing cells (CD4 HeLa) (D. C. Chan, et al., Proc. Natl. Acad. Sci., 95:15613-15617 (1998)).
as §1
To test how well the HIV-1-neutralizing epitope was recapitulated, two assays were used to measure the potency of the designed peptides in inhibiting HIV-1 envelope-mediated membrane fusion. The biological activity of the designed peptides were first measured by their ability to inhibit fusion of HeLa cells expressing CD4 and chemokine receptors and CHO expressing HIV envelope protein (D. C. Chan, C. T. Chutkowski, P. S. Kim, Proc. Natl. Acad. Sci. 95: 15613-15617 (1998)).

Substance: C34: linear C-peptide of HIV-1 gp41 (SEQ ID NO: 2), unstructured in solution [Peptide C34]
- IC50 [1]: 0.6 nM
- [Θ]222 value [2]: −3,800 deg cm^2 dmol^−1
- IC50 [3]: 2.1 nM

Substance: GCN4 homodimer
- inhibition of cell-cell fusion [4]: > 50 µM
- inhibition of viral infectivity [4]: > 50 µM

Substance: GCN4 homodimer: covalent homodimer of CGG-GCN4
- inhibition of viral infectivity, in words [5]: no activity
- Viral Infectivity Assay (IC50 in nM) ([5]; HOS cells expressing CD4 and CXCR4, luciferase 48 hours post-infection, 1% DMSO): none
- IC50 ([5]; read-out: no inhibitory activity in viral infectivity up to stated concentration, highest concentration without measurable inhibition): > 50000 nM
- transition midpoint under temperature denaturation [6]: over 100 °C
- inhibition of cell-cell fusion, in words [7]: no activity
- Cell-Cell Fusion Assay (IC50 in nM) ([7]; CHO cells expressing HXB2 envelope co-cultured with CD4 HeLa cells, 20 hours, 1% DMSO): none
- IC50 ([7]; read-out: no inhibitory activity in cell-cell fusion up to stated concentration, highest concentration without measurable inhibition): > 50000 nM

Substance: C34-GCN4 peptide (designed binder)
- Cell-Cell Fusion Assay (IC50 in nM) [4]: 5 nM
- Viral Infectivity Assay (IC50 in nM) [4]: 16 nM
- inhibition of cell-cell fusion, IC50 [4]: 4.6 nM
- inhibition of viral infectivity, IC50 [4]: 19 nM

Substance: Ac-WRMWDLEIKVYTLLIKNLILESEVQQLKNLVELR-NH2 (C-terminus assumed) [Peptide C34-GCN4]
- IC50 ([5]; read-out: Viral Infectivity Assay (IC50 in nM), HOS cells expressing CD4 and CXCR4, luciferase 48 hours post-infection, 1% DMSO): 16 nM
- [Θ]222 value ([2]; listed as C34-GCN4 peptide): −12,400 deg cm^2 dmol^−1 and −12,000 deg cm^2 dmol^−1
- solubility: < 1 µM
- inhibition of cell-cell fusion, in words [7]: strong inhibitory potency
- IC50 ([7]; read-out: Cell-Cell Fusion Assay (IC50 in nM), CHO cells expressing HXB2 envelope co-cultured with CD4 HeLa cells, 20 hours, 1% DMSO): 4.6 nM and 5 nM
